# Active and inactive are the calls of the source. The calls are words filed in the database; no cut-off is given here.
# Legend:
# HCT-116 [1] = experiment: Induction of apoptosis in human HCT116 cells assessed as early apoptotic cells at 10 uM after 24 hrs in presence of autophagy inhibitor 3-MA by annexin V-FITC/propidium iodide staining based flow cytometry (reference value: 4.1%); type: functional
# HCT-116 [2] = experiment: Growth inhibition of human HCT116 cells after 24 hrs by MTT assay; type: functional, cell-based
# [3] = Drug uptake in human HCT116 cell lysosomes at 10 uM after 2 hrs by Lyso-tracker staining based confocal microscopic method; type: ADME, subcellular, Lysosome; details: hct-116, 2 h
# Mus musculus [4] = experiment: Toxicity in Balb/c mouse implanted with mouse CT26 cells assessed as increase in liver weight at 1 mg/kg, iv for 7 consecutive days starting from day 8 post tumor implantation; type: organism-based; details: in vivo
# HCT-116 [5] = experiment: Induction of apoptosis in human HCT116 cells assessed as necrotic cells at 10 uM after 24 hrs by annexin V-FITC/propidium iodide staining based flow cytometry (reference value: 3.9%); type: functional
# [6] = target: Serine/threonine-protein kinase mTOR (Homo sapiens) (UniProt P42345); experiment: Inhibition of mTOR phosphorylation in human HCT116 cells after 24 hrs by Western blot method; type: cell-based
# HCT-116 [7] = experiment: Induction of apoptosis in human HCT116 cells assessed as necrotic cells at 10 uM after 24 hrs in presence of pan-caspase inhibitor Z-VAD-FMK by annexin V-FITC/propidium iodide staining based flow cytometry (reference value: 3.9%); type: functional
# CT26 [8] = experiment: Induction of apoptosis in mouse CT26 cells assessed as early apoptotic cells after 24 hrs by annexin V-FITC/propidium iodide staining based flow cytometry; type: functional, cell-based
# HCT-116 [9] = experiment: Induction of apoptosis in human HCT116 cells assessed as live cells at 10 uM after 24 hrs in presence of autophagy inhibitor 3-MA by annexin V-FITC/propidium iodide staining based flow cytometry (reference value: 89.97%); type: functional
# CT26 [10] = experiment: Induction of autophagy in mouse CT26 cells at 5 to 20 uM after 24 hrs by Lyso staining based flow cytometry; type: functional, cell-based
# CT26 [11] = experiment: Induction of apoptosis in mouse CT26 cells assessed as early apoptotic cells at 10 uM after 24 hrs in presence of autophagy inhibitor 3-MA by annexin V-FITC/propidium iodide staining based flow cytometry (reference value: 3.91%); type: functional
# CT26 [12] = experiment: Induction of apoptosis in mouse CT26 cells assessed as necrotic cells at 10 uM after 24 hrs in presence of autophagy inhibitor 3-MA by annexin V-FITC/propidium iodide staining based flow cytometry (reference value: 4.36%); type: functional
# Mus musculus [13] = experiment: Toxicity in Balb/c mouse implanted with mouse CT26 cells assessed as increase in liver weight at 1 mg/kg, iv for 14 consecutive days starting from day 8 post tumor implantation; type: organism-based; details: in vivo
# HCT-116 [14] = experiment: Downregulation of Akt protein expression in human HCT116 cells up to 10 uM after 24 hrs by Western blot method; type: functional, cell-based
# CT26 [15] = experiment: Antimetastatic activity against mouse CT26 cells implanted in Balb/c mouse assessed as inhibition of pulmonary metastasis nodules at 1 mg/kg, iv for 7 consecutive days starting from day 8 post tumor implantation measured on day 15 post tumor implantation relative to control; type: functional
# HCT-116 [16] = experiment: Induction of autophagy in human HCT116 cells at 5 to 20 uM after 24 hrs in presence of autophagy inhibitor 3-MA by Lyso staining based flow cytometry; type: functional, cell-based
# HCT-116 [17] = experiment: Induction of apoptosis in human HCT116 cells assessed as late apoptotic cells at 10 uM after 24 hrs in presence of autophagy inhibitor 3-MA by annexin V-FITC/propidium iodide staining based flow cytometry (reference value: 2.03%); type: functional
# HCT-116 [18] = experiment: Induction of apoptosis in human HCT116 cells assessed as late apoptotic cells at 10 uM after 24 hrs in presence of pan-caspase inhibitor Z-VAD-FMK by annexin V-FITC/propidium iodide staining based flow cytometry (reference value: 2.03%); type: functional
# HCT-116 [19] = experiment: Decrease in putrescine level in human HCT116 cells at 2.5 to 10 uM after 24 hrs by G1321A fluorescence detector coupled HPLC analysis; type: functional, cell-based
# [20] = Drug uptake in human HCT116 cells assessed as PAT-mediated drug internalization at 2.5 to 7.5 uM after 24 hrs in presence of spermidine by high content screening analysis; type: ADME, cell-based
# CT26 [21] = experiment: Induction of apoptosis in mouse CT26 cells assessed as late apoptotic cells at 10 uM after 24 hrs by annexin V-FITC/propidium iodide staining based flow cytometry (reference value: 2.26%); type: functional
# Mus musculus [22] = experiment: Toxicity in Balb/c mouse implanted with mouse CT26 cells assessed as increase in spleen weight at 1 mg/kg, iv for 7 consecutive days starting from day 8 post tumor implantation; type: organism-based; details: in vivo
# HepG2 = experiment: Growth inhibition of human HepG2 cells after 48 hrs by MTT assay; type: functional, cell-based; details: HepG2, 48 h
# HCT-116 [23] = experiment: Induction of apoptosis in human HCT116 cells assessed as live cells at 10 uM after 24 hrs in presence of pan-caspase inhibitor Z-VAD-FMK by annexin V-FITC/propidium iodide staining based flow cytometry (reference value: 89.97%); type: functional
# HCT-116 [24] = experiment: Upregulation of cleaved caspase-8 protein expression in human HCT116 cells up to 10 uM after 24 hrs in presence of autophagy inhibitor 3-MA by Western blot method; type: functional, cell-based
# Mus musculus [25] = experiment: Toxicity in Balb/c mouse implanted with mouse CT26 cells assessed as changes in body weight at 1 mg/kg, iv for 14 consecutive days starting from day 8 post tumor implantation; type: organism-based; details: in vivo
# HCT-116 [26] = experiment: Antimigratory activity against human HCT116 cells after 24 hrs by crystal violet staining based transwell assay; type: functional, cell-based
# HCT-116 [27] = experiment: Downregulation of Akt protein expression in human HCT116 cells up to 10 uM after 24 hrs in presence of autophagy inhibitor 3-MA by Western blot method; type: functional, cell-based
# CT26 [28] = experiment: Induction of autophagy in mouse CT26 cells after 24 hrs by MDC staining based flow cytometry; type: functional, cell-based
# CT26 [29] = experiment: Induction of apoptosis in mouse CT26 cells assessed as late apoptotic cells after 24 hrs by annexin V-FITC/propidium iodide staining based flow cytometry; type: functional, cell-based
# HCT-116 [30] = experiment: Decrease in spermine level in human HCT116 cells at 2.5 to 10 uM after 24 hrs by G1321A fluorescence detector coupled HPLC analysis; type: functional, cell-based
# HCT-116 [31] = experiment: Growth inhibition of human HCT116 cells at 2.5 to 7.5 uM after 24 hrs in presence of spermidine by MTT assay; type: functional, cell-based
# HCT-116 [32] = experiment: Induction of apoptosis in human HCT116 cells assessed as early apoptotic cells after 24 hrs by annexin V-FITC/propidium iodide staining based flow cytometry; type: functional, cell-based
# HCT-116 [33] = experiment: Downregulation of p62 protein expression in human HCT116 cells after 24 hrs by Western blot method; type: functional, cell-based
# HCT-116 [34] = experiment: Upregulation of SSAT protein expression in human HCT116 cells at 2.5 to 10 uM after 24 hrs by Western blot method; type: functional, cell-based
# Mus musculus [35] = experiment: Toxicity in Balb/c mouse implanted with mouse CT26 cells assessed as increase in heart weight at 1 mg/kg, iv for 7 consecutive days starting from day 8 post tumor implantation; type: organism-based; details: in vivo
# CT26 [36] = experiment: Induction of apoptosis in mouse CT26 cells assessed as live cells at 10 uM after 24 hrs by annexin V-FITC/propidium iodide staining based flow cytometry (reference value: 89.47%); type: functional
smiles,measurement,setting,value
Cl.Cl.Cl.NCCCCNCCCCNCCCCN1C(=O)c2cccc3cccc1c23,Activity,HCT-116 [1],17.3%
same,growth inhibition (GI),HCT-116 [2],Dose-dependent effect
same,IC50,"HCT-116 [2]; HCT-116, 24 h",6.9 µM
same,Drug uptake,[3],Active
same,Activity,Mus musculus [4],Toxic
same,Activity,HCT-116 [5],2.97%
same,inhibition,[6],Dose-dependent effect
same,Activity,HCT-116 [7],8.07%
same,Activity,CT26 [8],Dose-dependent effect
same,Activity,HCT-116 [9],56.54%
same,Activity,CT26 [10],Active
same,Activity,CT26 [11],27.36%
same,Activity,CT26 [12],4.42%
same,Activity,Mus musculus [13],Toxic
same,Activity,HCT-116 [14],Active
same,inhibition in vivo at 1 mg/kg,CT26 [15],82.5%
same,Activity,HCT-116 [16],inactive
same,Activity,HCT-116 [17],18.92%
same,Activity,HCT-116 [18],13.6%
same,Activity,HCT-116 [19],inactive
same,Drug uptake,[20],Not Active
same,Activity,CT26 [21],23.22%
same,Activity,Mus musculus [22],Toxic
same,IC50,HepG2,5.28 µM
same,Activity,HCT-116 [23],66.87%
same,Activity,HCT-116 [24],inactive
same,Activity,Mus musculus [25],Non-Toxic
same,Activity,HCT-116 [26],Dose-dependent effect
same,Activity,HCT-116 [27],inactive
same,Activity,CT26 [28],Dose-dependent effect
same,Activity,CT26 [29],Dose-dependent effect
same,Activity,HCT-116 [30],Active
same,growth inhibition (GI),HCT-116 [31],inactive
same,Activity,HCT-116 [32],Dose-dependent effect
same,Activity,HCT-116 [33],Dose-dependent effect
same,Activity,HCT-116 [34],Dose-dependent effect
same,Activity,Mus musculus [35],Toxic
same,Activity,CT26 [36],30.85%

# — ChEMBL document CHEMBL4130638, “Discovery of the Polyamine Conjugate with Benzo[ cd]indol-2(1 H)-one as a Lysosome-Targeted Antimetastatic Agent” (J Med Chem, 2018)
